PMC12136037, “Type II kinase inhibitors that target Parkinson’s disease–associated LRRK2” (Science Advances, 2025)
Values joined by “and” are separate entries in the source; they are usually repeats but may differ in a detail not shown here. Identical values can stand only once.

Target: T1, LRRK2^RCKW (Homo sapiens, UniProt Q5S007)
T1 construct: LRRK2 R1327 to E2527; His6-Z-tag (TEV cleavable) (N, cleaved yes); host or cells: Sf9 insect cells (baculovirus)
T1 sequence (Q5S007 1327-2527): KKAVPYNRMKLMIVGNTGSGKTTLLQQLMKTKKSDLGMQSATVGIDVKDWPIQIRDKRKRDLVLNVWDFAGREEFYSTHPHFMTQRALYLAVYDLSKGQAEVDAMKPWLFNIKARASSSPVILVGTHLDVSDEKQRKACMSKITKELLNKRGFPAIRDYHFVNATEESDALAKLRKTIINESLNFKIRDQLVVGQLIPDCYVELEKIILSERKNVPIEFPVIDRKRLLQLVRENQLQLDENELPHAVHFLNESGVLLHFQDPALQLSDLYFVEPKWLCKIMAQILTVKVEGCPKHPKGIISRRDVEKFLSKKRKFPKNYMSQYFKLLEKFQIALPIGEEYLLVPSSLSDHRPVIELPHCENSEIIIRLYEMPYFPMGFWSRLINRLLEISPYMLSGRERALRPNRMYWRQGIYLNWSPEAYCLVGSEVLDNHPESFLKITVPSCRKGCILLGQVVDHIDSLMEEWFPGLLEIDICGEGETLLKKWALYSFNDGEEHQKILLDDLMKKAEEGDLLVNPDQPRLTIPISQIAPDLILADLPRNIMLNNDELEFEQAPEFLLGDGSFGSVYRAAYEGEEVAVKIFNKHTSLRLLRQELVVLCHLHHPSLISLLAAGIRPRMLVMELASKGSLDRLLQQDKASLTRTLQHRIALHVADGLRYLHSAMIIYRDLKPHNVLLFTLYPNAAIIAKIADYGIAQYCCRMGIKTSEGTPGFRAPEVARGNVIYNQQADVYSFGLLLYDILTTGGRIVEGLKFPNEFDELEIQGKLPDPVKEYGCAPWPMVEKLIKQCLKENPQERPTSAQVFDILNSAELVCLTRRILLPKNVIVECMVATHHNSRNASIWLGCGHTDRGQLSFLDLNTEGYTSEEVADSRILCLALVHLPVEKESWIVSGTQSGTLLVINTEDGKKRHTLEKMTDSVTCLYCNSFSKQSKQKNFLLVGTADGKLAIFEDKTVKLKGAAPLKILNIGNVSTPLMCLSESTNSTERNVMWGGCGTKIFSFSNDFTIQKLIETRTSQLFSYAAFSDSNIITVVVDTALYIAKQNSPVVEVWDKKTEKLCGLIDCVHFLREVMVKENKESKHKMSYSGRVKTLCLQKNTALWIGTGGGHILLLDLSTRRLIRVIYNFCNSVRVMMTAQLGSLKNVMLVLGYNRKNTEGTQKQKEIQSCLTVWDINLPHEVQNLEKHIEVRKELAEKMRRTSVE
Assay: Single-molecule in vitro kinesin motility assay (TIRF) in the presence of LRRK2^RCKW
Assay type: biochemical
Settings: for Raw data per microtubule (Figure 6c/6e, kinesin motility): individual microtubule values; for Mean each experiment (Figure 6c/6e raw data, kinesin motility): mean of each independent experiment; for rescue of kinesin motility in the presence of LRRK2^RCKW: MLi-2 5 μM, Ponatinib, RN277, RN341 10 μM
Method: The excitation and emission paths were filtered using appropriate single band-pass filter cubes (Chroma). […] Illumination and image acquisition was controlled by NIS Elements Advanced Research software (Nikon; www.microscope.healthcare.nikon.com/products/software/nis-elements/nis-elements-advanced-research, RRID:SCR_014329).
Single-molecule total internal reflection fluorescence (TIRF) motility experiments were performed in flow chambers using the microscopy setup described above. Flow chambers were made by adhering 1^1/2 thickness cover glass (Corning) to a SuperFrost Plus microscope slide (Electron Microscopy Sciences) with double sided tape. Before flow chamber assembly, cover glass was washed in 1 M HCl at 60°C for 1 hour and sonicated in 100% ethanol for 10 min to reduce nonspecific binding. […] In brief, flow chambers were functionalized by incubation with biotin-BSA (1 mg/ml; Sigma-Aldrich) for 3 min, followed by streptavidin (0.5 mg/ml) for a further 3 min. Taxol-stabilized microtubules were diluted 1:100 in motility assay buffer [30 mM Hepes (pH 7.4), 50 mM potassium acetate, 2 mM magnesium acetate, 1 mM EGTA, 10% glycerol, 1 mM DTT, and 20 μM Taxol] and incubated with the flow chamber for 3 min. Following incubation, the flow chambers with adhered microtubules were washed three times with LRRK2 buffer [20 mM Hepes (pH 7.4), 80 mM NaCl, 0.5 mM TCEP, 5% glycerol, 2.5 mM MgCl2, and 20 μM GDP] before incubation for 5 min with either LRRK2 buffer with DMSO or specified kinase inhibitors (0 nM LRRK2^RCKW) or LRRK2 buffer containing LRRK2^RCKW and DMSO or kinase inhibitors as indicated. In all cases, DMSO or the indicated kinase inhibitors were incubated with LRRK2 buffer in the presence or absence of LRRK2^RCKW for 10 min before addition and incubation within the flow chambers.
Data were blinded before analysis. Kymographs were generated from motility movies and quantified for percent motility using ImageJ V.2.14.0 as previously described ([22], [63]). Processive, diffusive, and nonmotile events were manually annotated for calculation of the percentage of processive events per microtubule. […] Single-molecule movements with multiple behaviors were counted as multiple events. For percentage motility per microtubule measurements, processive events were divided by total events (nonmotile, diffuse, and processive) per kymograph.
For statistical analysis, brightness and contrast were adjusted in ImageJ for all motility movies and kymographs. Statistical analyses were performed in GraphPad Prism 10 (www.graphpad.com/, RRID:SCR_002798). Specific statistical analysis descriptors, n values, and P values can be found in the corresponding figure legends. All TIRF experiments were analyzed from three independent technical replicates.

SMILES	Raw data per microtubule (Figure 6c/6e, kinesin motility) (0nM RCKW)	Mean each experiment (Figure 6c/6e raw data, kinesin motility) (0nM RCKW)	Raw data per microtubule (Figure 6c/6e, kinesin motility) (100nM RCKW)	Mean each experiment (Figure 6c/6e raw data, kinesin motility) (100nM RCKW)	rescue of kinesin motility in the presence of LRRK2^RCKW	Raw data per microtubule (Figure 6c/6e, kinesin motility) (0nM RCKW, listed as RN341)	Mean each experiment (Figure 6c/6e raw data, kinesin motility) (0nM RCKW, listed as RN341)	Raw data per microtubule (Figure 6c/6e, kinesin motility) (100nM RCKW, listed as RN341)	Mean each experiment (Figure 6c/6e raw data, kinesin motility) (100nM RCKW, listed as RN341)	Raw data per microtubule (Figure 6c/6e, kinesin motility) (0nM RCKW, listed as RN277)	Mean each experiment (Figure 6c/6e raw data, kinesin motility) (0nM RCKW, listed as RN277)	Raw data per microtubule (Figure 6c/6e, kinesin motility) (100nM RCKW, listed as RN277)	Mean each experiment (Figure 6c/6e raw data, kinesin motility) (100nM RCKW, listed as RN277)
Cc1ccc(C(=O)Nc2ccc(CN3CCN(C)CC3)c(C(F)(F)F)c2)cc1C#Cc1cnc2cccnn12 [Ponatinib, reference compound]	83.3333 and 79.7203 and 85.1562 and 84.9462 and 85.9649 and 81.3725	82.4383 and 85.4556 and 82.3529	85.8491 and 82.7225 and 82.5758 and 84.8485 and 75 and 80.5556	82.6491 and 79.9242 and 83.2023	rescued kinesin motility	–	–	–	–	–	–	–	–
CCSc1nc(NC)c2c(-c3cccc(NC(=O)Nc4cc(C(C)(C)C)nn4-c4ccc(C)cc4)c3)c[nH]c2n1 [Compound 32]	–	–	–	–	rescued kinesin motility	77.4648 and 83.4483 and 76.4045 and 86.4865 and 75.9259 and 86.2385	79.9264 and 81.2062 and 81.8517	76.0563 and 76.9912 and 82.5688 and 91.0891 and 75.8621 and 85.9155	79.78 and 83.4756 and 80.9859	–	–	–	–
Cc1ccc(-n2nc(C(C)(C)C)cc2NC(=O)Nc2cccc(-c3c[nH]c4nc(Cl)nc(N5CCOCC5)c34)c2)cc1 [Compound 30]	–	–	–	–	rescued kinesin motility	–	–	–	–	85.8824 and 78.125 and 82.8829 and 82.3529 and 90 and 85.1064	80.5039 and 86.1765 and 85.4944	94.0299 and 83.3333 and 78.0142 and 83.1325 and 78.4314 and 95.5556	80.6738 and 80.7819 and 94.7927
